From US20260034125A1, “N-PHENYL-1-(PHENYLSULFONYL)PIPERIDIN-4-AMINE DERIVATIVES AS CCR6 INHIBITORS” (priority 2023, published 2026)

Legend:
Assay type in all cases: cell-based
human CCR6 [1] = biological target: T1, human CCR6 (Homo sapiens, UniProt P51684); assay: CHO-K1 CCR6 chemotaxis assay towards CCL20; conditions: relative -LogIC50; CHO-K1 cells overexpressing human CCR6, 100 ng/ml CCL20, Transwell, 4 h
T1 sequence (P51684 1-374): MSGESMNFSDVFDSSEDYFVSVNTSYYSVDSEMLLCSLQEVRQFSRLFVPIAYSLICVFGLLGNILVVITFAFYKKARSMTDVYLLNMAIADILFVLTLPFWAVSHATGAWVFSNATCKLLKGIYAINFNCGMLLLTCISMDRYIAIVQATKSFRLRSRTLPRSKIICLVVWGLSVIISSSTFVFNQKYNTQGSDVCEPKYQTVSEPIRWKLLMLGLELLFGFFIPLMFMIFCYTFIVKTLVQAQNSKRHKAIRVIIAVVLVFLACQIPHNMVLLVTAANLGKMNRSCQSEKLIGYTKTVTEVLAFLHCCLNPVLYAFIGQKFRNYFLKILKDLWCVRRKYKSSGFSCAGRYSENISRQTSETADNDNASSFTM
From the text: Cells overexpressing human CCR6 were used in the chemotaxis assay (DiscoverX, CAMP Hunter™ CHO-K1 CCR6 Gi Cell Line). Growth medium of these cells consisted of DMEM/F12, non-essential Amino acids (1×NEAA, Gibco 11140050), 10% FBS and 1× pen/strep (Gibco 15140). For the chemotaxis assay, Corning Transwell plates were used with a pore size of 8 μm (Corning 351164). Cells were harvested using trypsin and diluted to 4*10^6 cells/ml in chemotaxis medium (DMEM, 0.25% BSA, pen/strep). Compounds were four-fold serially diluted in DMSO. Further dilutions were made in chemotaxis medium. Cells were incubated with test compounds for 30 min at 37° C. prior to initiation of the assay (2*10^6 cells/ml). Final DMSO concentration in the assay was 0.2%. Wells of the Transwell plates were filled with 200 μl chemotaxis medium containing 100 ng/ml CCL20 (R&D systems 360-MP). 50 μl of the cell/compound suspension was added to the inserts of the Transwell plates (100,000 cells/insert). The Transwell plates were placed in an incubator at 37° C., 5% CO2 for 4 h. After 4 h, the number of migrated cells was quantified using CellTiter Glo (Promega). Percentage inhibition values were calculated based on the low and high signal obtained with 0.2% DMSO in chemotaxis medium without and with CCL20, respectively. The relative-LogIC50 was determined with GraphPad Prism 9 using a four-parameter dose-response model.

human CCR6 [2] = biological target: T1, human CCR6; assay: Human CCR6-Cre reporter assay; design: The second construct contained the open reading frame of human CCR6 in the pUNO1 backbone; host or cells: 293 FT cells; conditions: relative -LogIC50; transfected 293 FT cells, 6 μM Forskolin, 6 nM CCL20, luciferase readout, 5h
Description: 293 FT cells were transfected with 2 constructs using TransIT-293 (Mirus). The first construct (pGL4.29, Promega) expressed the luciferase reporter gene luc2P in response to the binding of cAMP-induced CREB to the CRE element in its promoter. The second construct contained the open reading frame of human CCR6 in the pUNO1 backbone under the control of an enhanced CMV promoter (In VivoGen). 48h after transfection, cells were harvested and diluted to 750,000 cells/ml in culture medium (DMEM, 10% FBS, 1× pen/strep (Gibco 15140)). Compounds were 2.5-fold serially diluted in DMSO. Further dilutions were made in assay medium (DMEM, 10% FBS, 1× pen/strep, 6 μM Forskolin, 6 nM CCL20). 4 μl of the compound solution was added to a white MW384 plate, followed by 20 μl of the cell suspension. Final DMSO concentration in the assay was 0.1%. The MW384 plate was placed in an incubator at 37° C., 5% CO2 for 5h. Luciferase activity was determined by addition of 24 μl of a 2.5× diluted BriteLite luciferase solution (Perkin Elmer), followed by luminescence measurement using a VICTOR Plate reader (Perkin Elmer). […] The relative-LogIC50 was determined with GraphPad Prism 9 using a four-parameter dose-response model.

Human CD4+ T cells = assay: CD4+ T cell chemotaxis assay towards CCL20; conditions: relative -LogIC50, 150 ng/ml CCL20, Transwell, 3 h
From the text: Human CD4+ T cells were isolated from buffy coats of healthy donors using a CD4+ T Cell Isolation Kit (Miltenyi Biotec130-096-533). Isolated T cells were stimulated overnight with anti-CD3 and anti-CD28 antibodies (Biolegend 300314/302934) in growth medium (RPMI1640, 10% heat-inactivated FBS, 1× pen/strep (Gibco 15140)). For the chemotaxis assay, Corning Transwell plates were used with a pore size of 5 μm (Corning 3388). T cells were counted and diluted to 6*10^6 cells/ml in chemotaxis medium (RPMI1640, 1% BSA, pen/strep). Compounds were four-fold serially diluted in DMSO. Further dilutions were made in chemotaxis medium. Cells were incubated with test compounds for 30 min at 37° C. prior to initiation of the assay (3*10^6 cells/ml). Final DMSO concentration in the assay was 0.2%. Wells of the Transwell plates were filled with 200 μl chemotaxis medium containing 150 ng/ml CCL20 (R&D systems 360-MP). 50 μl of the cell/compound suspension was added to the inserts of the Transwell plates (150,000 cells/insert). The Transwell plates were placed in an incubator at 37° C., 5% CO2 for 3 h. After 3 h, the number of migrated cells was quantified using CellTiter Glo (Promega). Percentage inhibition values were calculated based on the low and high signal obtained with 0.2% DMSO in chemotaxis medium without and with CCL20, respectively. The relative −LogIC50 was determined with GraphPad Prism 9 using a four-parameter dose-response model.

Row | SMILES | IC50 (human CCR6 [1]) [nM] | IC50 (human CCR6 [2]) [nM] | IC50 (Human CD4+ T cells) [nM]
1 | CC(C)c1nnc2ccc(-c3ccc(S(=O)(=O)N4CCC(Nc5ccc(C6(C(F)(F)F)CC6)cn5)CC4)cc3)cn12 [Example 36, N-(1-{4-[3-(propan-2-yl)-[1,2,4]triazolo[4,3-a]pyridin-6-yl]benzenesulfonyl}piperidin-4-yl)-5-[1-(trifluoromethyl)cyclopropyl]pyridin-2-amine] | – | 31.6 | 3.16
2 | N#Cc1c[nH]c2ccc(-c3ccc(S(=O)(=O)N4CCC(Nc5ccc(C6CC6)cc5)CC4)cc3)cc12 [Example 12, 5-[4-({4-[(4-cyclopropylphenyl)Amino]piperidin-1-yl}sulfonyl)phenyl]-1H-indole-3-carbonitrile] | 251 | 251 | –
3 | O=c1[nH]nc2ccc(-c3ccc(S(=O)(=O)N4CCC(Nc5ccc(C6(C(F)(F)F)CC6)cc5)CC4)cc3)cn12 [Example 43, 6-(4-{[4-({4-[1-(trifluoromethyl)cyclopropyl]phenyl}amino)piperidin-1-yl]sulfonyl}phenyl)-2H,3H-[1,2,4]triazolo[4,3-a]pyridin-3-one] | – | 100 | 12.6
4 | Cc1cc(-c2ccc(S(=O)(=O)N3CCC(Nc4ccc(C5(C#N)CC5)cn4)CC3)cc2)cn2c(C(C)C)nnc12 [Example 32, 1-{6-[(1-{4-[8-methyl-3-(propan-2-yl)-[1,2,4]triazolo[4,3-a]pyridin-6-yl]benzenesulfonyl}piperidin-4-yl)amino]pyridin-3-yl}cyclopropane-1-carbonitrile] | – | 200 | 126
5 | CC(C)c1nnc2ccc(-c3ccc(S(=O)(=O)N4CCC(Nc5ccc(C6(C#N)CC6)cn5)CC4)cc3)cn12 [Example 31, 1-{6-[(1-{4-[3-(propan-2-yl)-[1,2,4]triazolo[4,3-a]pyridin-6-yl]benzenesulfonyl}piperidin-4-yl)amino]pyridin-3-yl}cyclopropane-1-carbonitrile] | – | 200 | 79.4
6 | CC(C)c1nnc2ccc(-c3ccc(S(=O)(=O)[C@H]4CC[C@H](Nc5ccc(C6(C#N)CC6)cn5)CC4)cc3)cn12 [Example 30, 1-(6-{[(trans)-4-{4-[3-(propan-2-yl)-[1,2,4]triazolo[4,3-a]pyridin-6-yl]benzenesulfonyl}cyclohexyl]amino}pyridin-3-yl)cyclopropane-1-carbonitrile] | – | 200 | 251
7 | Cc1c[nH]c2ncc(-c3ccc(S(=O)(=O)[C@H]4CC[C@H](Nc5ccc(C6(C(F)(F)F)CC6)cc5)CC4)cc3)cc12 [Example 21, N-[(trans)-4-(4-{3-methyl-1H-pyrrolo[2,3-b]pyridin-5-yl}benzenesulfonyl)cyclohexyl]-4-[1-(trifluoromethyl)cyclopropyl]aniline] | – | 63.1 | 1.58
8 | N#CC1(c2ccc(NC3CCN(S(=O)(=O)c4ccc(-c5ccc6n[nH]c(=O)n6c5)cc4)CC3)nc2)CC1 [Example 35, 1-(6-{[1-(4-{3-oxo-2H,3H-[1,2,4]triazolo[4,3-a]pyridin-6-yl}benzenesulfonyl)piperidin-4-yl]amino}pyridin-3-yl)cyclopropane-1-carbonitrile] | – | 398 | 1580
9 | O=S(=O)(c1ccc(-c2ccc3nccn3c2)cc1)N1CCC(Nc2ccc(C3(C(F)(F)F)CC3)cn2)CC1 [Example 37, N-[1-(4-{imidazo[1,2-a]pyridin-6-yl}benzenesulfonyl)piperidin-4-yl]-5-[1-(trifluoromethyl)cyclopropyl]pyridin-2-amine] | – | 100 | 5.01
10 | CC(C)c1nnc2cnc(-c3ccc(S(=O)(=O)N4CCC(Nc5ccc(C6(C(F)(F)F)CC6)cc5)CC4)cc3)cn12 [Example 41, 1-{4-[3-(propan-2-yl)-[1,2,4]triazolo[4,3-a]pyrazin-6-yl]benzenesulfonyl}-N-{4-[1-(trifluoromethyl)cyclopropyl]phenyl}piperidin-4-amine] | – | 63.1 | 3.98

Further molecules by falling IC50 (human CCR6 [2]), results first:

Row | IC50 (human CCR6 [1]) [nM] | IC50 (human CCR6 [2]) [nM] | IC50 (Human CD4+ T cells) [nM] | SMILES
11 | 158 | 158 | – | CNC(=O)c1ccc(-c2ccc(S(=O)(=O)N3CCC(Nc4ccc(C5(C(F)(F)F)CC5)cc4)CC3)cc2)cc1 [Example 5, N-methyl-4′-{[4-({4-[1-(trifluoromethyl)cyclopropyl]phenyl}Amino)piperidin-1-yl]sulfonyl}-[1,1′-biphenyl]-4-carboxamide]
12 | – | 126 | 6.31 | Cc1nnc2ccc(-c3ccc(S(=O)(=O)N4CCC(Nc5ccc(C6(C(F)(F)F)CC6)cc5)CC4)cc3)cn12 [Example 42, 1-(4-{3-methyl-[1,2,4]triazolo[4,3-a]pyridin-6-yl}benzenesulfonyl)-N-{4-[1-(trifluoromethyl)cyclopropyl]phenyl}piperidin-4-amine]
13 | 39.8 | 100 | – | O=S(=O)(c1ccc(-c2ccc3nccn3c2)cc1)[C@H]1CC[C@H](Nc2ccc(C3(C(F)(F)F)CC3)cc2)CC1 [Example 17, N-[trans-4-(4-{imidazo[1,2-a]pyridin-6-yl}benzenesulfonyl)cyclohexyl]-4-[1-(trifluoromethyl)cyclopropyl]aniline]
14 | – | 100 | 2.51 | Cc1n[nH]c2ncc(-c3ccc(S(=O)(=O)[C@H]4CC[C@H](Nc5ccc(C6(C(F)(F)F)CC6)cc5)CC4)cc3)cc12 [Example 22, N-[(trans)-4-(4-{3-methyl-1H-pyrazolo[3,4-b]pyridin-5-yl}benzenesulfonyl)cyclohexyl]-4-[1-(trifluoromethyl)cyclopropyl]aniline]
15 | 25.1 | 79.4 | – | CNC(=O)c1cccc(-c2ccc(S(=O)(=O)N3CCC(Nc4ccc(C5(C(F)(F)F)CC5)cc4)CC3)cc2)c1 [Example 4, N-methyl-4′-{[4-({4-[1-(trifluoromethyl)cyclopropyl]phenyl}Amino)piperidin-1-yl]sulfonyl}-[1,1′-biphenyl]-3-carboxamide]
16 | 5.01 | 20 | – | N#Cc1c[nH]c2ccc(-c3ccc(S(=O)(=O)[C@H]4CC[C@H](Nc5ccc(C6(C(F)(F)F)CC6)cc5)CC4)cc3)cc12 [Example 16, 5-(4-{[trans-4-({4-[1-(trifluoromethyl)cyclopropyl]phenyl}Amino)cyclohexyl]sulfonyl}phenyl)-1H-indole-3-carbonitrile]
